Results taken from patent US11926614B2, “1,2,4-triazole derivatives as tankyrase inhibitors” (priority 2018, dated 2024).
Where two headings read alike, the source gives them in different places.

How the values were obtained:
TNKS2 = TNKS2 (Homo sapiens (Human), UniProt Q9H2K2); test: Biochemical IC50 TNKS2; conditions: read-out: Biochemical IC50 TNKS2
Description: (§1) XLfit (idbs) was used to determine the IC50-values in inhibition experiments. The following formula was chosen to fit the data points (Langmuir Binding Isotherm): fit=((A+(B*x))+4(C−B)*(1−exp((−1*D)*x)))/D)), res=(y−fit)

HEK293 = test: Cellular IC50 HEK293; type: cell-based
Description: as §1

[1] = Homo sapiens, HEK293, HEK293; read-out: Cellular IC50 HEK293
[2] = Homo sapiens, HEK293, read-out: Cellular IC50 HEK293
[3] = Homo sapiens, HEK293; read-out: Cellular IC50 HEK293

Sequence of TNKS2 (Q9H2K2 whole entry): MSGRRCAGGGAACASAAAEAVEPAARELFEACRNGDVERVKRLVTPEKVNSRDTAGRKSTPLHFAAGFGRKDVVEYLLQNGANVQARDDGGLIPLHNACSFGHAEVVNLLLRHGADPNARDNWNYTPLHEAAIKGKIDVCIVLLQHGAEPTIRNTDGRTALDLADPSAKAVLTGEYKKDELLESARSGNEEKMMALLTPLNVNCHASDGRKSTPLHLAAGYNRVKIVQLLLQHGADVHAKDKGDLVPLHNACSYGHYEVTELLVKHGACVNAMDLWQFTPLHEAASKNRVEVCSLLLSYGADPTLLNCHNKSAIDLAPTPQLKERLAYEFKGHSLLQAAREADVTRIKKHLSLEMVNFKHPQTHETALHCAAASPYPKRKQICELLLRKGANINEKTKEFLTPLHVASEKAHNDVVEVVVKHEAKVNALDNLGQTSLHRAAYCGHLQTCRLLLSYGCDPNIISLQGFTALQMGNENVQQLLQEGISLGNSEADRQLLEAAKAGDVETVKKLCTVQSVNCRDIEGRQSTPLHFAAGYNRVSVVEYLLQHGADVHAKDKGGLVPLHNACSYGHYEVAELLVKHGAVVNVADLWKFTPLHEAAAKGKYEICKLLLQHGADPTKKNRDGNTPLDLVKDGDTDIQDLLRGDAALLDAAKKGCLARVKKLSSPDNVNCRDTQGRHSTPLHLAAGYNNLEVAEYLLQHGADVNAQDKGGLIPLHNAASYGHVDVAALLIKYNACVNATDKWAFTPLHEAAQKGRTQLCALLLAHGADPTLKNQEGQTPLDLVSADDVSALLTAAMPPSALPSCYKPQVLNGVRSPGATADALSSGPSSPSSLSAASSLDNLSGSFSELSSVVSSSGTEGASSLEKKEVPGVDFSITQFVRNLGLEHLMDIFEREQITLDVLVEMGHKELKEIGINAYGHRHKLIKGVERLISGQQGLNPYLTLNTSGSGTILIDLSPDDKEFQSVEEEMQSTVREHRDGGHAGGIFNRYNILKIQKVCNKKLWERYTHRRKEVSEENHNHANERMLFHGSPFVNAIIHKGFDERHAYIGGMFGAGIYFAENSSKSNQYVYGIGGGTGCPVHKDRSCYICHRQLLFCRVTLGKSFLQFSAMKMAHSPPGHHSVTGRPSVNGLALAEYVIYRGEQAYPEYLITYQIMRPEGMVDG

Row | SMILES | IC50 (TNKS2) [nM] | IC50 (HEK293; [1]) [nM] | IC50 (HEK293; [2]) [nM] | IC50 (HEK293; [3]) [nM]
1 | CCOc1ccc(-c2nnc([C@H]3C[C@H](NC(=O)c4cccc5c4OCCO5)C3)n2-c2ccccc2F)nc1 [Example 116, N-((1S,3r)-3-(5-(5-ethoxypyridin-2-yl)-4-(2-fluorophenyl)-4H-1,2,4-triazol-3-yl)cyclobutyl)-2,3-dihydrobenzo[b][1,4]dioxine-5-carboxamide] | 4.5 | 47 | – | –
2 | CCOc1ccc(-c2nnc([C@H]3C[C@H](NC(=O)c4cccc(C(F)(F)F)n4)C3)n2-c2ccccc2F)nc1 [Example 125, N-((1S,3r)-3-(5-(5-ethoxypyridin-2-yl)-4-(2-fluorophenyl)-4H-1,2,4-triazol-3-yl)cyclobutyl)-6-(trifluoromethyl)picolinamide] | 28 | 70 | – | –
3 | CCOc1ccc(-c2nnc([C@H]3C[C@H](NC(=O)c4nc5ccccc5[nH]4)C3)n2-c2ccccc2)nc1 [Example 73, N-((1r,3r)-3-(5-(5-ethoxypyridin-2-yl)-4-phenyl-4H-1,2,4-triazol-3-yl)cyclobutyl)-1H-benzo[d]imidazole-2-carboxamide] | 7 | 102 | – | –
4 | CCOc1ccc(-c2nnc([C@H]3C[C@H](NC(=O)c4ccc5ncccc5n4)C3)n2-c2ccncc2)nc1 [Example 169, N-((1r,3r)-3-(5-(5-ethoxypyridin-2-yl)-4-(pyridin-4-yl)-4H-1,2,4-triazol-3-yl)cyclobutyl)-1,5-naphthyridine-2-carboxamide] | 28 | 58 | – | –
5 | CCOc1ccc(-c2nnc([C@H]3C[C@H](NC(=O)c4ccc5ncccc5n4)C3)n2-c2ccccc2F)nc1 [Example 96, N-((1S,3r)-3-(5-(5-ethoxypyridin-2-yl)-4-(2-fluorophenyl)-4H-1,2,4-triazol-3-yl)cyclobutyl)-1,5-naphthyridine-2-carboxamide] | 1.5 | – | 5 | –
6 | O=C(N[C@H]1C[C@H](c2nnc(-c3nccs3)n2-c2cccnc2)C1)c1ccccn1 [Example 109, N-((1r,3r)-3-(4-(pyridin-3-yl)-5-(thiazol-2-yl)-4H-1,2,4-triazol-3-yl)cyclobutyl)picolinamide] | 800 | 4700 | – | –
7 | O=C(N[C@H]1C[C@H](c2nnc(-c3ccccc3)n2-c2ccccc2F)C1)c1ccc(F)cn1 [Example 175, 5-fluoro-N-((1S,3r)-3-(4-(2-fluorophenyl)-5-phenyl-4H-1,2,4-triazol-3-yl)cyclobutyl)picolinamide] | 150 | 499 | – | –
8 | O=C(NC12CC(c3nnc(-c4ccncn4)n3-c3ccccc3Cl)(C1)C2)c1ccccc1 [Example 23, N-(3-(4-(2-chlorophenyl)-5-(pyrimidin-4-yl)-4H-1,2,4-triazol-3-yl)bicyclo[1.1.1]pentan-1-yl)benzamide] | 3.8 | 100 | – | –
9 | CCOc1ccc(-c2nnc([C@H]3C[C@H](NC(=O)c4ccnc5cc(F)cnc45)C3)n2-c2ccncc2)nc1 [Example 170, N-((1r,3r)-3-(5-(5-ethoxypyridin-2-yl)-4-(pyridin-4-yl)-4H-1,2,4-triazol-3-yl)cyclobutyl)-7-fluoro-1,5-naphthyridine-4-carboxamide] | 2.9 | – | 6 | –
10 | CCOc1ccc(-c2nnc([C@H]3C[C@H](NC(=O)c4ccnc5cccnc45)C3)n2-c2ccccn2)nc1 [Example 124, N-((1r,3r)-3-(5-(5-ethoxypridin-2-yl)-4-(pyridin-2-yl)-4H-1,2,4-triazol-3-yl)cyclobutyl)-1,5-naphthyridine-4-carboxamide] | 5.8 | – | 36 | –
11 | O=C(N[C@H]1C[C@H](c2nnc(-c3ccncn3)n2-c2ccccc2Cl)C1)c1cccc(F)c1 [Example 14, N-((1S,3r)-3-(4-(2-chlorophenyl)-5-(pyrimidin-4-yl)-4H-1,2,4-triazol-3-yl)cyclobutyl)-3-fluorobenzamide] | 6.7 | 40 | – | –
12 | O=C(N[C@H]1C[C@H](c2nnc(-c3nccs3)n2-c2ccc(Cl)s2)C1)c1ccccn1 [Example 79, N-((1r,3r)-3-(4-(5-chlorothiophen-2-yl)-5-(thiazol-2-yl)-4H-1,2,4-triazol-3-yl)cyclobutyl)picolinamide] | 27 | 140 | – | –
13 | CCOc1ccc(-c2nnc(C34CC(NC(=O)c5ccnc6cccnc56)(C3)C4)n2-c2ccncc2)nc1 [Example 172, N-(3-(5-(5-ethoxypyridin-2-yl)-4-(pyridin-4-yl)-4H-1,2,4-triazol-3-yl)bicyclo[1.1.1]pentan-1-yl)-1,5-naphthyridine-4-carboxamide] | 9.4 | – | – | 43
14 | CCOc1ccc(-c2nnc([C@H]3C[C@H](NC(=O)c4ccc5ccccc5n4)C3)n2-c2ccccc2F)nc1 [Example 104, N-((1S,3r)-3-(5-(5-ethoxypyridin-2-yl)-4-(2-fluorophenyl)-4H-1,2,4-triazol-3-yl)cyclobutyl)quinoline-2-carboxamide] | 6.4 | 14 | – | –
15 | O=C(N[C@H]1C[C@H](c2nnc(-c3ccncn3)n2-c2ccccc2Cl)C1)c1ccccc1F [Example 13, N-((1S,3r)-3-(4-(2-chlorophenyl)-5-(pyrimidin-4-yl)-4H-1,2,4-triazol-3-yl)cyclobutyl)-2-fluorobenzamide] | 6.4 | 30 | – | –
16 | CCOc1ccc(-c2nnc([C@H]3C[C@H](NC(=O)c4nc5ccccc5[nH]4)C3)n2-c2ccc(C)s2)nc1 [Example 143, N-((1r,3r)-3-(5-(5-ethoxypyridin-2-yl)-4-(5-methylthiophen-2-yl)-4H-1,2,4-triazol-3-yl)cyclobutyl)-1H-benzo[d]imidazole-2-carboxamide] | 11 | 94 | – | –
17 | O=C(N[C@H]1C[C@H](c2nnc(-c3ccc(OC(F)F)cn3)n2-c2ccccc2F)C1)c1cccc2nccnc12 [Example 185, N-((1S,3r)-3-(5-(5-(difluoromethoxy)pyridin-2-yl)-4-(2-fluorophenyl)-4H-1,2,4-triazol-3-yl)cyclobutyl)quinoxaline-5-carboxamide] | 1.9 | – | 1.2 | –
18 | CCOc1ccc(-c2nnc([C@H]3C[C@H](NC(=O)c4ccn(C)n4)C3)n2-c2ccccc2F)nc1 [Example 120, N-((1S,3r)-3-(5-(5-ethoxypyridin-2-yl)-4-(2-fluorophenyl)-4H-1,2,4-triazol-3-yl)cyclobutyl)-1-methyl-1H-pyrazole-3-carboxamide] | 18 | 65 | – | –
19 | O=C(N[C@H]1C[C@H](c2nnc(-c3nccs3)n2-c2ccc(Cl)s2)C1)c1ccnc2cccnc12 [Example 78, N-((1r,3r)-3-(4-(5-chlorothiophen-2-yl)-5-(thiazol-2-yl)-4H-1,2,4-triazol-3-yl)cyclobutyl)-1,5-naphthridine-4-carboxamide] | 2 | 1.1 | – | –
20 | CCOc1ccc(-c2nnc([C@H]3C[C@H](NC(=O)c4cc5occc5[nH]4)C3)n2-c2ccccc2F)nc1 [Example 151, N-((1S,3r)-3-(5-(5-ethoxypyridin-2-yl)-4-(2-fluorophenyl)-4H-1,2,4-triazol-3-yl)cyclobutyl)-4H-furo[3,2-13]pyrrole-5-carboxamide] | 14 | 35 | – | –
21 | O=C(N[C@H]1C[C@H](c2nnc(-c3ccncn3)n2-c2ccccc2Cl)C1)c1ncccc1F [Example 18, N-((1S,3r)-3-(4-(2-chlorophenyl)-5-(pyrimidin-4-yl)-4H-1,2,4-triazol-3-yl)cyclobutyl)-3-fluoropicolinamide] | 37 | 57 | – | –
22 | CCOc1ccc(-c2nnc(C34CC(NC(=O)c5ccnc6cccnc56)(C3)C4)n2-c2cccnc2)nc1 [Example 166, N-(3-(5-(5-ethoxypyridin-2-yl)-4-(pyridin-3-yl)-4H-1,2,4-triazol-3-yl)bicyclo[1.1.1]pentan-1-yl)-1,5-naphthyridine-4-carboxamide] | 9.6 | – | – | 30
23 | O=C(N[C@H]1C[C@H](c2nnc(-c3ccncn3)n2-c2ccccc2Cl)C1)c1ccccc1 [Example 12, N-((1S,3r)-3-(4-(2-chlorophenyl)-5-(pyrimidin-4-yl)-4H-1,2,4-triazol-3-yl)cyclobutyl)benzamide] | 5.5 | 3 | – | –
24 | O=C(N[C@H]1C[C@H](c2nnc(-c3ccncn3)n2-c2ccccc2Cl)C1)c1ccccn1 [Example 10, N-((1S,3r)-3-(4-(2-chlorophenyl)-5-(pyrimidin-4-yl)-4H-1,2,4-triazol-3-yl)cyclobutyl)picolinamide] | 1.5 | – | – | 0.2
25 | O=C(N[C@H]1C[C@H](c2nnc(-c3nccs3)n2-c2ccccc2Cl)C1)c1ccc(F)cc1 [Example 44, N-((1S,3r)-3-(4-(2-chlorophenyl)-5-(thiazol-2-yl)-4H-1,2,4-triazol-3-yl)cyclobutyl)-4-fluorobenzamide] | 13 | 50 | – | –
26 | CCOc1ccc(-c2nnc([C@H]3C[C@H](NC(=O)c4cc5cnccc5[nH]4)C3)n2-c2ccccc2F)nc1 [Example 157, N-((1S,3r)-3-(5-(5-ethoxypyridin-2-yl)-4-(2-fluorophenyl)-4H-1,2,4-triazol-3-yl)cyclobutyl)-1H-pyrrolo[3,2-c]pyridine-2-carboxamide] | 4.4 | 34 | – | –
27 | CC(C)Oc1ccc(-c2nnc([C@H]3C[C@H](NC(=O)c4ccccn4)C3)n2-c2ccccc2F)nc1 [Example 111, N-((1S,3r)-3-(4-(2-fluorophenyl)-5-(5-isopropoxypyridin-2-yl)-4H-1,2,4-triazol-3-yl)cyclobutyl)picolinamide] | 12 | – | 110 | –
28 | CCOc1ccc(-c2nnc([C@H]3C[C@H](NC(=O)c4cc5cc(OC)ncc5[nH]4)C3)n2-c2ccccc2F)nc1 [Example 127, N-((1S,3r)-3-(5-(5-ethoxypyridin-2-yl)-4-(2-fluorophenyl)-4H-1,2,4-triazol-3-yl)cyclobutyl)-5-methoxy-1H-pyrrolo[2,3-c]pyridine-2-carboxamide] | 4.3 | 9.1 | – | –
